Experiment: Food effect and relative bioavailability crossover study, Compound (1) vs sodium oxybate
Details: 7.25 g Compound (1) oral; for AUC(0-inf) / AUC(0-t) / Cmax / half-life / Tmax: human, plasma, po, 7.25 g; for AUC(0-inf): Compound (1) plasma AUC0-inf; for Tmax: Compound (1) plasma Tmax

With CC(C)[C@H](N)C(=O)OCCCC(=O)O [Compound (1), 4-((L-valyl)oxy)butanoic acid] the “plasma Compound (1) AUC0-tlast, Adjusted Geometric Mean Ratio (Fed vs Fasted)” value was 1.28, the “plasma Compound (1) Cmax, Adjusted Geometric Mean Ratio (Fed vs Fasted)” value was 0.65 and the “Compound (1) plasma AUC0-inf, Max” value (Fasted) was 30800 ng·h/mL. For the same compound, the “Compound (1) plasma AUC0-inf, Min” value (Fasted) was 9500 ng·h/mL, the “Compound (1) plasma AUC0-tlast, Max” value (Fasted) was 36100 ng·h/mL and the “Compound (1) plasma AUC0-tlast, Min” value (Fasted) was 9400 ng·h/mL. For the same compound, the “Compound (1) plasma Cmax, Max” value (Fasted) was 43600 ng/mL, the “Compound (1) plasma Cmax, Min” value (Fasted) was 9400 ng/mL and the “Compound (1) plasma T1/2, Max” value (Fasted) was 114 min. For the same compound, the “Compound (1) plasma T1/2, Min” value (Fasted) was 16.2 min, the “Compound (1) plasma AUC0-inf, Max” value (Fed) was 39000 ng·h/mL and the “Compound (1) plasma AUC0-inf, Min” value (Fed) was 16000 ng·h/mL. The “Compound (1) plasma AUC0-tlast, Max” value (Fed) was 38600 ng·h/mL, the “Compound (1) plasma AUC0-tlast, Min” value (Fed) was 15900 ng·h/mL and the “Compound (1) plasma Cmax, Max” value (Fed) was 27800 ng/mL. The “Compound (1) plasma Cmax, Min” value (Fed) was 5500 ng/mL, the “Compound (1) plasma T1/2, Max” value (Fed) was 69 min and the “Compound (1) plasma T1/2, Min” value (Fed) was 16.2 min. For the same compound, the “Compound (1) plasma Tmax, Max” value (Fed) was 90 min, the AUC(0-inf) (Mean, Fasted) was 22400 ng·h/mL and the AUC(0-inf) (Mean, Fed) was 29000 ng·h/mL. The AUC(0-inf) (Median, Fasted) was 20400 ng·h/mL, the AUC(0-inf) (Median, Fed) was 29100 ng·h/mL and the AUC(0-t) (Compound (1) plasma AUC0-tlast, Mean, Fasted) was 23900 ng·h/mL. It also gave an AUC(0-t) (Compound (1) plasma AUC0-tlast, Mean, Fed) of 28800 ng·h/mL, an AUC(0-t) (Compound (1) plasma AUC0-tlast, Median, Fasted) of 22500 ng·h/mL and an AUC(0-t) (Compound (1) plasma AUC0-tlast, Median, Fed) of 29000 ng·h/mL. The Cmax (Compound (1) plasma Cmax, Mean, Fasted) was 27700 ng/mL, the Cmax (Compound (1) plasma Cmax, Mean, Fed) was 18100 ng/mL and the Cmax (Compound (1) plasma Cmax, Median, Fasted) was 27300 ng/mL. The Cmax (Compound (1) plasma Cmax, Median, Fed) was 17300 ng/mL, the half-life (Compound (1) plasma T1/2, Mean, Fasted) was 32.4 min and the half-life (Compound (1) plasma T1/2, Mean, Fed) was 38.4 min. The half-life (Compound (1) plasma T1/2, Median, Fasted) was 21 min, the half-life (Compound (1) plasma T1/2, Median, Fed) was 35.4 min and the Tmax (Median, Fasted) was 45 min. It also gave a Tmax (Median, Fed) of 30 min, an AUC(0-t) (plasma Compound (1) AUC0-tlast, Adjusted Geometric Mean, Fasted) of 21000 ng·h/mL and an AUC(0-t) (plasma Compound (1) AUC0-tlast, Adjusted Geometric Mean, Fed) of 27000 ng·h/mL. It also gave a Cmax (plasma Compound (1) Cmax, Adjusted Geometric Mean, Fasted) of 25400 ng/mL and a Cmax (plasma Compound (1) Cmax, Adjusted Geometric Mean, Fed) of 16500 ng/mL.

Source: patent US11896573B2, “Pharmaceutical compositions and pharmacokinetics of a gamma-hydroxybutyric acid derivative” (priority 2020, dated 2024)
